Values after ≈ are worked out from the molar mass of the structure shown. Values joined by “and” are separate entries in the source; they are usually repeats but may differ in a detail not shown here. Equal entries are not always repeated. Where two headings read alike, the source gives them in different places.
What was measured:
DXP synthase = target: T1, DXP synthase (Escherichia coli, UniProt P77488); assay: Aromatic aldehydes as DXP synthase acceptor substrates; type: biochemical
T1 construct: made in house
T1 sequence (P77488 1-620): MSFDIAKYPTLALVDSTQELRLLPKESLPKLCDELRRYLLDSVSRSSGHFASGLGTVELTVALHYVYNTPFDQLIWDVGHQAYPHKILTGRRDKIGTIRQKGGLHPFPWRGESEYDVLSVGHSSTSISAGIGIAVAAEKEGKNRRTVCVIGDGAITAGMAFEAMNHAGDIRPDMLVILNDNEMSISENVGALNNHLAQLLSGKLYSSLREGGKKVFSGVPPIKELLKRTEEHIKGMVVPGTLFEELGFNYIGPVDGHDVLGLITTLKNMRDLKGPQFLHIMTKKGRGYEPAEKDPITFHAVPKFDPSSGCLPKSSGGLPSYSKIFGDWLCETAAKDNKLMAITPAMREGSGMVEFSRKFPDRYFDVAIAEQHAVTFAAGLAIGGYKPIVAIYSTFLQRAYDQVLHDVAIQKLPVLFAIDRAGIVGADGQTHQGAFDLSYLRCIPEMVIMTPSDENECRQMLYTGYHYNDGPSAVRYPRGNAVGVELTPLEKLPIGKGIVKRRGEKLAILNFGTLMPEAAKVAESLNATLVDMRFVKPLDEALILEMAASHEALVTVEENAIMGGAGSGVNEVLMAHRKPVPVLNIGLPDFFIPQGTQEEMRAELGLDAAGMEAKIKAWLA
Source text: Some ThDP-dependent enzymes are known to catalyze C—C bond formation using aromatic substrates with varying turnover efficiencies; ^[20] [21] […] As a starting point, we tested several aromatic aldehydes as acceptor substrates.

E. coli BW25113 = assay: Antimicrobial activity against E. coli BW25113 grown in CAMHB; type: cell-based; conditions: 0.63 to 5 mM, 16 hours
Description: FIG. 9 is a chart showing antimicrobial activity of acetylphosphonates against E. coli BW25113 grown in CAMHB. Standardized cell cultures (approximately ˜10^5 CFU mL^−1) were exposed to increasing concentrations of acetylphosphonate. Fractional growth was determined at 16 hours as a percentage of the growth of no drug control. BAP (●), PentAP (▪) and HexAP (▴) were varied from 0.31 to 5 mM. OctAP (▾) was varied from 0.63 to 5 mM, and BnAP (♦) was varied from 0.16 mM to 5 mM. Each data point is the average of 3 independent experiments and the error bars are standard error.
(§1) Standardized innocula of E. coli BW25113 (approximately ˜10^5 CFU mL^−1) were treated with varying concentrations of either MAP (blue) or EAP (orange) from 0.63 to 5 mM for 16 hours, and fractional growth was determined by comparison to a no drug control. The ΔtolC variant of BW25113 was also treated with varying concentrations of MAP (black) or EAP (green) from 0.63 to 5 mM for 16 hour, and fractional growth was determined by comparison to no drug controls. Experiments were performed in duplicate, and error bars represent standard deviation.

[1] = tested on: ΔtolC variant of E. coli BW25113; assay: Antimicrobial activity against ΔtolC variant grown in CAMHB; type: cell-based; conditions: 0.63 to 5 mM, 16 hour
Description: as §1

E. coli K-12 (BW25113) = assay: Antimicrobial activity against E. coli K-12 grown in M9 minimal medium; type: cell-based; conditions: Escherichia coli, BW25113
Source text: The product of DXP synthase, DXP, lies at a metabolic branchpoint. DXP serves as precursor not only for essential isoprenoids, but also is essential to central metabolism as a precursor to both thiamin diphosphate and pyridoxal phosphate. Thus, evaluation of antimicrobial activity of DXP synthase inhibitors in the standard, rich growth medium (CAMHB) which contains rescuing metabolites, likely underestimates the antimicrobial activities of these agents. Standard in vitro culture conditions may have poor predictive value for these agents in vivo; access to most nutrients is thought to be more difficult from the host than in nutrient rich media.

[2] = target: T2, Porcine pyruvate dehydrogenase (PDH E1 subunit) (Sus scrofa, UniProt P29804); assay: Inhibition of PDH by acetylphosphonates; type: biochemical; conditions: Table 5 (no unit in table; μM)
T2 construct: Ki^PDH; μM); Ki^PDH
T2 sequence (P29804 1-390): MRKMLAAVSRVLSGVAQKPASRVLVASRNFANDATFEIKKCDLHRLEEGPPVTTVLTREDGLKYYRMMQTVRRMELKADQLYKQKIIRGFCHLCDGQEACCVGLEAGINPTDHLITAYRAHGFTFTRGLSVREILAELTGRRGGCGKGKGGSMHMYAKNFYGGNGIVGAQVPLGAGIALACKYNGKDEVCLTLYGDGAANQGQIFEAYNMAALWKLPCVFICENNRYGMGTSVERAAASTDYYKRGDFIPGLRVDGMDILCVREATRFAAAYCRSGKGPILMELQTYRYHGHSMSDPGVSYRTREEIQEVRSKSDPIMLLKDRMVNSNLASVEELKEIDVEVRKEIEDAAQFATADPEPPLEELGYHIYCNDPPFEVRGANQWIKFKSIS
Description: FIG. 6A, FIG. 6B, and FIG. 6C are charts showing Competitive inhibition of procine PDH E1 subunit by PentAP (FIG. 6A), HexAP (FIG. 6B) and OctAP (FIG. 6C). Inhibition assays were performed as previously described^[18]. Pyruvate concentration was varied from 12.5-250 μM and acetylphosphonate concentration was varied: 0 μM (∘), 250 μM (PentAP) or 200 μM (HexAP and OctAP) (●), 500 μM (□) and 1000 μM (▪). Experiments were performed in triplicate, and data were subjected to non-linear regression analysis for Ki determinations (GraphPad Prism). Representative Lineweaver-Burk plots (GraFit from Erithacus Software) are shown for PentAP (FIG. 6A), HexAP (FIG. 6B) and OctAP (FIG. […]) to illustrate the competitive inhibition mode with respect to pyruvate.
Pyruvate dehydrogenase activity was measured spectrophotometrically as previously reported ^[38] by monitoring absorbance changes at 340 nm due to reduction of NAD^+ by PDH. Reaction mixtures contained 100 mM HEPES (pH 8.0), 1 mg/mL BSA, 0.2 mM ThDP, 0.1 mM coenzyme A, 1 mM MgCl2, 2 mM cysteine, 0.3 mM tris(2-carboxyethyl)phosphine (TCEP). The reaction was initiated with enzyme (0.01 units/ml) and activity was monitored at 30° C. For inhibition studies, reaction mixtures (described above) including BnAP (0.5, 1, 2.25 mM) were pre-incubated at 30° C. for 5 minutes. Initial rates were measured immediately after reactions were initiated by addition of PDH (0.01 units/ml). Double reciprocal analysis of data was carried out using GraFit version 7 from Erithacus Software.

E. coli DXP synthase = target: T3, E. coli DXP synthase (Escherichia coli, UniProt P77488); assay: biochemical; conditions: competitive with respect to pyruvate
T3 construct: made in house
Description: FIG. 4A, FIG. 4B, and FIG. 4C are charts showing competitive inhibition of DXP synthase by pentylacetylphosphonate (PentAP; FIG. 4A), hexylacetylphosphonate (HexAP; FIG. 4B), and octylacetyl phosphonate (OctAP; FIG. 4C). Inhibition assays were performed as previously described^[18], [40]). […] Pyruvate concentration was varied from 12-240 μM and acetylphosphonate concentration was varied: 0 μM (∘), 10 μM (●), 25 μM (□) and 50 μM (▪). Experiments were performed in triplicate, and data were subjected to non-linear regression analysis for Ki determinations (GraphPad Prism). Representative Lineweaver-Burk plots (GraFit from Erithacus Software) are shown for PentAP (FIG. 4A), HexAP (FIG. 4B) and OctAP (FIG. 4C) to illustrate the competitive inhibition mode with respect to pyruvate.
Inhibition of DXP synthase was measured as previously described^[13], [18]. […] Acetylphosphonate concentration was varied from 0 to 250 μM. […] Experiments were performed in triplicate for BAP and in duplicate for iPrAP
In order to evaluate the inhibitory activity of BnAP against DXP synthase, a continuous spectrophotometric coupled assay was used to measure formation of DXP by monitoring IspC consumption of NADPH (340 nm). ^[2] DXP synthase reaction mixtures (previously described) including BnAP (15, 30, and 60 μM), IspC (1 μM) and NADPH (100 μM) were pre-incubated at 37° C. for 5 minutes. Initial rates were measured after the reaction was initiated by the addition of DXP synthase. Inhibition of the coupling enzyme (IspC) by BnAP was not observed up to 1.5 mM. Experiments were performed in triplicate. Double reciprocal analysis of data was carried out using GraFit version 7 from Erithacus Software.

[3] = tested on: wild-type K-12 E. coli (ATCC: MG1655); assay: Antimicrobial activity against E. coli K-12 grown in CAMHB; type: cell-based
Description: FIG. 7A and FIG. 7B are charts showing representative growth curves are shown for BAP (FIG. 7A) and BnAP (FIG. 7B). Alkylacetylphosphonates exert dose-dependent delay in E. coli K-12 (MG 1655) growth in CAMHB. Fractional growth (measured at 16 h, blue arrow) was determined relative to the no drug control. Standardized cell cultures were exposed to increasing concentrations of acetylphosphonate, and growth was determined by measuring the OD600 for a period of 16 hours. Acetylphosphonate concentration was varied from 0-5 mM: No drug (light blue), 0.08 mM (orange), 0.16 mM (gray), 0.31 mM (yellow), 0.63 mM (blue), 1.25 mM (green), 2.5 mM (dark blue) and 5.0 mM (brown).
Thus, BnAP, PentAP, HexAP and OctAP, also shown to inhibit DXP synthase, were evaluated for antimicrobial activity against wild-type K-12 E. coli (ATCC: MG1655) grown in rich medium (CAMHB).

[4] = aromatic aldehyde acceptor substrate

O=Cc1c(O)cc([N+](=O)[O-])cc1[N+](=O)[O-] [2-Hydroxy-4,6-dinitrobenzaldehyde]
Km higher than the natural substrate, D-GAP (DXP synthase): ~18 fold | Km (DXP synthase; [4]): 512 µM | kcat (DXP synthase; [4]): 0.00583 ± 0.00083 s⁻¹

CCOP(=O)(O)C(C)=O [EAP, ethyl acetylphosphonate]
activity against E. coli BW25113 (E. coli BW25113): inactive | activity against ΔtolC variant [1]: inactive

COP(=O)(O)C(C)=O [MAP, methyl acetylphosphonate]
activity against E. coli BW25113 (E. coli BW25113): inactive | activity against ΔtolC variant [1]: inactive

CCCCCCCCOP(=O)(O)C(C)=O [OctAP, Octylacetylphosphonate]
MIC (E. coli K-12 (BW25113); M9 minimal medium, preliminary, read-out: MIC): 1250 µM (≈ 295 µg/mL) | Ki ([2]; read-out: Ki^PDH): 154 ± 14 µM | Ki (E. coli DXP synthase; read-out: Ki (DXP synthase)): 6 ± 0.2 µM | antimicrobial effects against E. coli (MG1655) ([3]; FIG. 10, in words): inactive | inactive up to ([3]; rich medium (CAMHB)): > 5 mM and > 1210 ug/mL

CCCCCOP(=O)(O)C(C)=O [PentAP, Pentylacetylphosphonate]
MIC (E. coli K-12 (BW25113)): 12500 µM (≈ 2430 µg/mL) | Ki ([2]; Ki^PDH): 250 ± 31 µM | Ki (E. coli DXP synthase; Ki (DXP synthase)): 9.9 ± 0.4 µM | MIC90 ([3]; Escherichia coli, MG1655, 16 h, read-out: minimum inhibitory concentration (MIC90)): 1250 µM (≈ 243 µg/mL)

Source: US9930893B2, “Inhibitors of DXP synthase and methods of use thereof” (The Johns Hopkins University, priority 2014, dated 2018)
